Source: US20240374591A1, “CEREBLON BINDING COMPOUNDS, COMPOSITIONS THEREOF, AND METHODS OF TREATMENT THEREWITH” (CELGENE CORPORATION, priority 2021, published 2024)
Structures can show the parent of a compound that is named as a salt.

Biological target: T1, AR in VCaP cells (Homo sapiens, UniProt P10275)
T1 construct: endogenous in cells; host or cells: VCaP cells
T1 sequence (P10275 1-920): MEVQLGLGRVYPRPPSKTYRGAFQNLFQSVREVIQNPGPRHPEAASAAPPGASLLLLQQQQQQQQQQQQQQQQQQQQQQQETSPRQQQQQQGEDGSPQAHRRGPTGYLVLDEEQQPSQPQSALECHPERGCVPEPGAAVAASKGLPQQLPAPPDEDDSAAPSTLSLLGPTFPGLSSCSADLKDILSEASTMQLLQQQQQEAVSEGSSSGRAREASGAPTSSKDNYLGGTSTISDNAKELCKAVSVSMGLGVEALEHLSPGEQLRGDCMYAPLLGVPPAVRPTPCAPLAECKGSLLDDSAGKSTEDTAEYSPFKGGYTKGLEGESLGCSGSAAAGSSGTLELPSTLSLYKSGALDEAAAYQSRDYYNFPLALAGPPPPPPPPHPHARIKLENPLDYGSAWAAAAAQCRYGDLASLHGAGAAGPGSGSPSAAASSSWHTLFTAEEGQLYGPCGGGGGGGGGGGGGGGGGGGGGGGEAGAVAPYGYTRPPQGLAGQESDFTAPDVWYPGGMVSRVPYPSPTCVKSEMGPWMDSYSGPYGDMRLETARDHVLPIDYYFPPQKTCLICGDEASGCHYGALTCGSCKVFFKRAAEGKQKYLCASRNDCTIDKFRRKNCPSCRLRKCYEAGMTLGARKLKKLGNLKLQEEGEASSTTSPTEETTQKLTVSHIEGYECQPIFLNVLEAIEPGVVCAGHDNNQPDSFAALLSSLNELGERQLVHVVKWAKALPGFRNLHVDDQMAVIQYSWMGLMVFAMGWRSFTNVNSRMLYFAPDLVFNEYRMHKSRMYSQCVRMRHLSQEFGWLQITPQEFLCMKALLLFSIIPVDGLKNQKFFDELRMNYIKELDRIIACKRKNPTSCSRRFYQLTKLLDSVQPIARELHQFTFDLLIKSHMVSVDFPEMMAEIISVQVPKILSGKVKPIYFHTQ
Test: VCAP AR Degradation Assay (AR ELISA, 24 h)
Format: cell-based
Settings: for DC50: concentration giving 50% AR degradation vs DMSO control; for remaining activity at up to 5 µM: lowest measured AR level normalized to DMSO control, top concentration 5 μM, read-out: Y
Description: VCAP AR Degradation Assay. Test compounds were pre-dispensed into a Corning CellBind 96-well clear bottom plate (Cat #3300) using an acoustic dispenser to make a 10-point concentration series at 1:3 dilution for each compound. The final top concentration of each compound was 5 μM. DMSO at a final concentration of 0.1% was used as a control. VCaP cells cultured in DMEM with 8% fetal bovine serum (FBS) were seeded at 50K cells per well in a 200 μL volume into the compound plate and incubated at 37° C. in a CO2 incubator for 24 h. The medium was carefully removed from the cells and the plate was placed on ice. One hundred μL of ice-cold 1× cell lysis buffer from Cell Signaling Technologies (Cat #9803) was added to each well of the cells and the plate was incubated at 4° C. on a shaker for 1 h. Fifteen μL of cell lysate was used for AR ELISA detection using a PathScan Total Sandwich AR ELISA kit (Cell Signaling Technology, Cat #12580). AR levels in compound-treated wells were normalized to that of DMSO control and expressed as percent of control (PoC) (y). A Four Parameter Logistic Model (Sigmoidal Dose-Response Model) was used to determine the compound's DC50, and EC50, using the following equation: […]
The lowest measured AR level normalized to DMSO control in response to compound treatment, termed Y value, was used to characterize the compound-mediated AR degradation efficiency.

| SMILES | DC50 [nM] | remaining activity at up to 5 µM [%] |
| --- | --- | --- |
| C[C@@H]1C[C@@H](CCO[C@H]2CC[C@H](N3C(=S)N(c4ccc(C#N)c(C(F)(F)F)c4)C(=O)C3(C)C)CC2)C[C@H](C)N1CC(=O)Nc1ccc(C2CCC(=O)NC2=O)nc1 (stereo partly drawn) [Cmpd 14, 2-((2R,4r,6S)-4-(2-((trans-4-(3-(4-Cyano-3-(trifluoromethyl)phenyl)-5,5-dimethyl-4-oxo-2-thioxoimidazolidin-1-yl)cyclohexyl)oxy)ethyl)-2,6-dimethylpiperidin-1-yl)-N-(6-(2,6-dioxopiperidin-3-yl)pyridin-3-yl)acetamide hydrochloride] | ≤ 5 | 20 to 30 |
| C[C@@H]1CN(CCO[C@H]2CC[C@H](N3C(=S)N(c4ccc(C#N)c(C(F)(F)F)c4)C(=O)C3(C)C)CC2)C[C@H](C)N1CC(=O)Nc1ccc(C2CCC(=O)NC2=O)nc1 (stereo partly drawn) [Cmpd 2, 2-((2R,6S)-4-(2-((trans-4-(3-(4-Cyano-3-(trifluoromethyl)phenyl)-5,5-dimethyl-4-oxo-2-thioxoimidazolidin-1-yl)cyclohexyl)oxy)ethyl)-2,6-dimethylpiperazin-1-yl)-N-(6-(2,6-dioxopiperidin-3-yl)pyridin-3-yl)acetamide hydrochloride] | 5 to 10 | 30 to 70 |
| C[C@@H]1CN(CCCO[C@H]2CC[C@H](N3C(=S)N(c4cnc(C#N)c(C(F)(F)F)c4)C(=O)C3(C)C)CC2)C[C@H](C)N1CC(=O)Nc1ccc(C2CCC(=O)NC2=O)nc1 (stereo partly drawn) [Cmpd 4, 2-((2R,6S)-4-(3-((trans-4-(3-(6-Cyano-5-(trifluoromethyl)pyridin-3-yl)-5,5-dimethyl-4-oxo-2-thioxoimidazolidin-1-yl)cyclohexyl)oxy)propyl)-2,6-dimethylpiperazin-1-yl)-N-(6-(2,6-dioxopiperidin-3-yl)pyridin-3-yl)acetamide hydrochloride] | ≤ 5 | 20 to 30 |
| CC1(C)C(=O)N(c2cnc(C#N)c(C(F)(F)F)c2)C(=S)N1[C@H]1CC[C@H](CCCN2CCN(CC(=O)Nc3ccc(C4CCC(=O)NC4=O)nc3)[C@@H](C(F)(F)F)C2)CC1 (stereo partly drawn) [Cmpd 21, 2-((R)-4-(3-((trans)-4-(3-(6-Cyano-5-(trifluoromethyl)pyridin-3-yl)-5,5-dimethyl-4-oxo-2-thioxoimidazolidin-1-yl)cyclohexyl)propyl)-2-(trifluoromethyl)piperazin-1-yl)-N-(6-(2,6-dioxopiperidin-3-yl)pyridin-3-yl)acetamide] | ≤ 5 | 0 to 20 |
| C[C@@H]1CN(CCCO[C@H]2CC[C@H](N3C(=S)N(c4ccc(C#N)c(C(F)(F)F)c4)C(=O)C3(C)C)CC2)C[C@H](C)N1CC(=O)Nc1ccc(N2CCC(=O)NC2=O)nc1 [Cmpd 12, 2-((2R,6S)-4-(3-((trans-4-(3-(4-Cyano-3-(trifluoromethyl)phenyl)-5,5-dimethyl-4-oxo-2-thioxoimidazolidin-1-yl)cyclohexyl)oxy)propyl)-2,6-dimethylpiperazin-1-yl)-N-(6-(2,4-dioxotetrahydropyrimidin-1(2H)-yl)pyridin-3-yl)acetamide hydrochloride] | 100 to 10000 | 30 to 70 |
| CC1(C)C(=O)N(c2ccc(C#N)c(C(F)(F)F)c2)C(=S)N1[C@H]1CC[C@H](CCCN2CCN(CC(=O)Nc3ccc(C4CCC(=O)NC4=O)nc3)[C@@H](C(F)(F)F)C2)CC1 (stereo partly drawn) [Cmpd 22, 2-((R)-4-(3-((trans)-4-(3-(4-Cyano-3-(trifluoromethyl)phenyl)-5,5-dimethyl-4-oxo-2-thioxoimidazolidin-1-yl)cyclohexyl)propyl)-2-(trifluoromethyl)piperazin-1-yl)-N-(6-(2,6-dioxopiperidin-3-yl)pyridin-3-yl)acetamide] | 10 to 100 | 20 to 30 |
| C[C@@H]1CN(CCCC[C@H]2CC[C@H](N3C(=S)N(c4ccc(C#N)c(C(F)(F)F)c4)C(=O)C3(C)C)CC2)C[C@H](C)N1CC(=O)Nc1ccc(N2CCC(=O)NC2=O)nc1 [Cmpd 15, 2-((2R,6S)-4-(4-((trans)-4-(3-(4-Cyano-3-(trifluoromethyl)phenyl)-5,5-dimethyl-4-oxo-2-thioxoimidazolidin-1-yl)cyclohexyl)butyl)-2,6-dimethylpiperazin-1-yl)-N-(6-(2,4-dioxotetrahydropyrimidin-1(2H)-yl)pyridin-3-yl)acetamide] | 100 to 10000 | 30 to 70 |
| C[C@@H]1C[C@H](OCCC[C@H]2CC[C@H](N3C(=S)N(c4ccc(C#N)c(C(F)(F)F)c4)C(=O)C3(C)C)CC2)C[C@H](C)N1CC(=O)Nc1ccc(C2CCC(=O)NC2=O)nc1 (stereo partly drawn) [Cmpd 20, 2-((2R,4r,6S)-4-(3-((trans)-4-(3-(4-Cyano-3-(trifluoromethyl)phenyl)-5,5-dimethyl-4-oxo-2-thioxoimidazolidin-1-yl)cyclohexyl)propoxy)-2,6-dimethylpiperidin-1-yl)-N-(6-(2,6-dioxopiperidin-3-yl)pyridin-3-yl)acetamide] | 5 to 10 | 20 to 30 |
| C[C@@H]1C[C@H](OCCC[C@H]2CC[C@H](N3C(=S)N(c4cnc(C#N)c(C(F)(F)F)c4)C(=O)C3(C)C)CC2)C[C@H](C)N1CC(=O)Nc1ccc(C2CCC(=O)NC2=O)nc1 (stereo partly drawn) [Cmpd 26, 2-((2R,4r,6S)-4-(3-((trans)-4-(3-(6-Cyano-5-(trifluoromethyl)pyridin-3-yl)-5,5-dimethyl-4-oxo-2-thioxoimidazolidin-1-yl)cyclohexyl)propoxy)-2,6-dimethylpiperidin-1-yl)-N-(6-(2,6-dioxopiperidin-3-yl)pyridin-3-yl)acetamide] | ≤ 5 | 0 to 20 |
| CC1(C)C(=O)N(c2ccc(C#N)c(C(F)(F)F)c2)C(=S)N1[C@H]1CC[C@H](OCCN2CCN(CC(=O)Nc3ccc(C4CCC(=O)NC4=O)nc3)[C@@H](C(F)(F)F)C2)CC1 (stereo partly drawn) [Cmpd 13, 2-((R)-4-(2-((trans-4-(3-(4-Cyano-3-(trifluoromethyl)phenyl)-5,5-dimethyl-4-oxo-2-thioxoimidazolidin-1-yl)cyclohexyl)oxy)ethyl)-2-(trifluoromethyl)piperazin-1-yl)-N-(6-(2,6-dioxopiperidin-3-yl)pyridin-3-yl)acetamide hydrochloride] | 5 to 10 | 20 to 30 |
| C[C@@H]1CN(CCC[C@H]2CC[C@H](N3C(=S)N(c4cnc(C#N)c(C(F)(F)F)c4)C(=O)C3(C)C)CC2)C[C@H](C)N1CC(=O)Nc1ccc(C2CCC(=O)NC2=O)nc1 (stereo partly drawn) [Cmpd 8, 2-((2R,6S)-4-(3-(trans-4-(3-(6-Cyano-5-(trifluoromethyl)pyridin-3-yl)-5,5-dimethyl-4-oxo-2-thioxoimidazolidin-1-yl)cyclohexyl)propyl)-2,6-dimethylpiperazin-1-yl)-N-(6-(2,6-dioxopiperidin-3-yl)pyridin-3-yl)acetamide hydrochloride] | ≤ 5 | 20 to 30 |
| C[C@@H]1CN(CCO[C@H]2CC[C@H](N3C(=S)N(c4ccc(C#N)c(C(F)(F)F)c4)C(=O)C3(C)C)CC2)C[C@H](C)N1CCC(=O)Nc1ccc(N2CCC(=O)NC2=O)nc1 [Cmpd 9, 3-((2R,6S)-4-(2-((trans-4-(3-(4-Cyano-3-(trifluoromethyl)phenyl)-5,5-dimethyl-4-oxo-2-thioxoimidazolidin-1-yl)cyclohexyl)oxy)ethyl)-2,6-dimethylpiperazin-1-yl)-N-(6-(2,4-dioxotetrahydropyrimidin-1(2H)-yl)pyridin-3-yl)propanamide] | 10 to 100 | 30 to 70 |
| C[C@@H]1C[C@@H](CCO[C@H]2CC[C@H](N3C(=S)N(c4cnc(C#N)c(C(F)(F)F)c4)C(=O)C3(C)C)CC2)C[C@H](C)N1CC(=O)Nc1ccc(C2CCC(=O)NC2=O)nc1 (stereo partly drawn) [Cmpd 19, 2-((2R,4s,6S)-4-(2-(((trans)-4-(3-(6-Cyano-5-(trifluoromethyl)pyridin-3-yl)-5,5-dimethyl-4-oxo-2-thioxoimidazolidin-1-yl)cyclohexyl)oxy)ethyl)-2,6-dimethylpiperidin-1-yl)-N-(6-(2,6-dioxopiperidin-3-yl)pyridin-3-yl)acetamide] | ≤ 5 | 20 to 30 |
